Read-outs that look alike come from different tables or passages of the source.
How the values were obtained:
[1] = CellTiter-Glo cytotoxicity assay; format: cell-based, Human; conditions: human, A549-ACE2 cells, 48 h, CellTiter-Glo, quadruplicate
Procedure: (§1) A549-ACE2 cells were maintained in low-glucose DMEM (Gibco, Waltham, MA, USA) supplemented with 10% FBS, 1% NEAA, and 1% L-glutamine. No antibiotics were used. Cells were plated at 2000 cells/well in a 384-well plate (Costar, Glendale, AZ, USA) and incubated overnight (37 °C, 5% CO2) before adding the compound. Compounds were added in quadruplicate and incubated for 48 h. DMSO percentage was constant across all concentrations of the compound. Cell viability was measured using CellTiter-Glo2 (Promega, Madison, WI, USA) and the luminescence signal was read on a GloMax plate reader (Promega, Madison, WI, USA). Dose–response analysis was performed using GraphPad Prism.

A549-ACE2 cells = assay: CellTiter-Glo cytotoxicity assay; format: cell-based, Human
Procedure: as §1

24 h PK study in mice = format: in vivo, CD-1 mice; conditions: for concentration at 24 h: mouse, CD-1 mice, below limit of quantification, read-out: plasma concentration at the 24 h time point
Procedure: In the 24 h PK study, male CD-1 mice (6–8 weeks old, 20–30 g) were dosed by intravenous (i.v.), oral (p.o.), or intraperitoneal (i.p.) administration of compound 2. For i.v. administration, a single dose of compound 2 (3 mg/kg) was administered as 5 mL/kg of a 0.6 mg/mL solution in DMSO/PEG-400/Water (v/v/v, 10:30:60) to six mice. For p.o. administration, a single dose of compound 2 (10 mg/kg) was administered as 10 mL/kg of a 1 mg/mL solution in DMSO/PEG-400/Water (v/v/v, 10:30:60) to six mice. For i.p. administration, a single dose of compound 2 (10 mg/kg) was administered as 10 mL/kg of a 1 mg/mL solution in DMSO/PEG-400/Water (v/v/v, 10:30:60) to six mice. The mice had free access to water and food. At 0.083, 0.25, 0.5, 1, 2, 4, 8, 12, and 24 h post dose administration, 0.03 mL of blood was collected from the dorsal metatarsal vein of three mice at each time point. Each blood sample was transferred into a plastic microcentrifuge tube containing EDTA-K2 anticoagulant and mixed well with the anticoagulant then placed on ice prior to centrifugation at 4000× g for 5 min at 4 °C to obtain plasma. The samples were stored in a freezer at −75 ± 15 °C prior to analysis. At 12 h post dose administration and 24 h post dose administration, three mice were anesthetized using increasing concentrations of CO2, and lung samples were collected. Lung samples were quickly frozen in an ice box and stored at −75 ± 15 °C. Prior to analysis, all lung samples were weighed and homogenized with phosphate-buffered saline (PBS) in a lung weight (g)/buffer volume (mL) ratio of 1:3. The final concentration of the compound was calculated by multiplying the detected concentration by a dilution factor of four.
Concentrations of the test compound in the plasma samples were determined using a Prominence LC-MS/MS system with a DGU-20A5R(C) degasser, LC-30AD pump, CBM-20A system controller, SIL-20AC HT autosampler; Rack changer II, HALO 90A ES-CN (2.7 μm, 2.1 × 50 mm) column, and AB Sciex Triple Quan 5500 LC/MS/MS instrument. The mobile phase was 5–95% MeCN in H2O, with 0.1% formic acid. The desired serial concentrations of working solutions were achieved by diluting the stock solution of the analyte with 50% acetonitrile in water. A series of 10 µL working solutions […] were added to 10 μL of blank plasma or lung homogenate to achieve calibration standards of 0.5, 1, 2, 5, 10, 50, 100, 500, 1000 ng/mL in a total volume of 20 μL. A total of 5 quality control samples at 1 ng/mL, 2 ng/mL, 5 ng/mL, 100 ng/mL, and 800 ng/mL were prepared independently of those used for the calibration curves in the same manner. A 20 μL standard, 20 μL QC sample, and 20 μL of an unknown sample (10 µL plasma or lung homogenate with 10 µL blank solution) were added to 200 μL of acetonitrile containing internal standard mixture for precipitating protein. Then, the samples were vortexed for 30 s. After centrifugation at 4 °C and 4000 rpm for 15 min, the supernatant was diluted with ultrapure water at a ratio of 1:2 (v/v, 1:2), then 20 µL of diluted supernatant was injected into the LC/MS/MS system for quantitative analysis. PK parameters were calculated from the mean plasma concentration versus time using a noncompartmental model in WinNonlin Phoenix version 8.3.

[2] = male, ip, CD-1 mouse plasma, 10 mg/kg i.p.
[3] = male, iv, CD-1 mouse plasma, 3 mg/kg i.v.
[4] = male, po, CD-1 mouse plasma, 10 mg/kg p.o.

CCC(=O)Nc1cc(Nc2cc(NC3CC3)n3ncc(C#N)c3n2)c(F)cc1N1CCC[C@H](NC)C1 [Compound 2, (S)-N-(5-((3-cyano-7-(cyclopropylamino)pyrazolo[1,5-a]pyrimidin-5-yl)amino)-4-fluoro-2-(3-(methylamino)piperidin-1-yl)phenyl)propionamide]
viability at 48 h, 0.1 µM ([1]; 0.1 μM): 100%
viability at 48 h, 1 µM ([1]; 1.0 μM): 76%
cytotoxicity in A549-ACE2 cells (A549-ACE2 cells; 0.1 μM): no toxicity
cytotoxicity in A549-ACE2 cells (A549-ACE2 cells; 1.0 μM): low toxicity
AUC(0-t) (24 h PK study in mice; [2]): 10.1 µM·h
Cmax (24 h PK study in mice; [2]): 2650 nM
Tmax (24 h PK study in mice; [2]): 0.5 h
half-life (24 h PK study in mice; [2]): 2.5 h
AUC(0-t) (24 h PK study in mice; [3]): 1.87 µM·h
half-life (24 h PK study in mice; [3]): 1.9 h
Vd (24 h PK study in mice; male, iv, CD-1 mouse plasma, 3 mg/kg i.v., read-out: Vdss): 3.5 L/kg
concentration at 24 h (24 h PK study in mice; male, plasma, iv, 3 mg/kg i.v.): < 1.02 nM
concentration at 24 h (24 h PK study in mice; male, plasma, po, 10 mg/kg p.o.): < 1.02 nM
bioavailability (24 h PK study in mice; male, plasma, po, CD-1 mouse, 10 mg/kg p.o.): 52%
AUC(0-t) (24 h PK study in mice; [4]): 3.13 µM·h
Cmax (24 h PK study in mice; [4]): 563 nM
Tmax (24 h PK study in mice; [4]): 2.7 h
half-life (24 h PK study in mice; [4]): 2.1 h
lung concentrations (24 h PK study in mice; mice, 12 and 24 h post dose administration): accumulated in the lungs

— publication PMC11397024, “Strategic Fluorination to Achieve a Potent, Selective, Metabolically Stable, and Orally Bioavailable Inhibitor of CSNK2” (Molecules, 2024)
